According to paper PMC3111241 (Anesthesiology, 2009):

What was measured:
[1] = tested on: dark-adapted pupil diameter (miosis); test: Methadone pupil effect; format: in vivo, human; details: for AUEC0-∞ / Maximum miosis: 6.0 mg IV and 11.0 mg oral methadone HCl
CYP3A = details: in vivo; cited from earlier work
Oral = details: human, plasma, 11 mg, control
Intravenous = details: for EH (hepatic extraction) / AUC(0-inf) / Cmax: 6.0 mg IV methadone HCl; for AUC(0-t) / AUC(0-inf) / Cmax: human, plasma, iv, 6 mg; for AUC(0-t): AUC0-96, 6.0 mg IV methadone HCl; for AUC(0-inf): AUC0-∞
[2] = steady-state ritonavir/indinavir

For `CCC(=O)C(CC(C)N(C)C)(c1ccccc1)c1ccccc1` (centres unmarked) [methadone], the “AUEC0-∞” value ([1]; acute ritonavir/indinavir) was 65 ± 26 mm/h, the Maximum miosis ([1]; acute ritonavir/indinavir) was 3.5 ± 0.7 mm and the “AUEC0-∞” value ([1]; control) was 52 ± 24 mm/h. For the same compound, the Maximum miosis ([1]; control) was 2.9 ± 1.0 mm, the “AUEC0-∞” value [1, 2] was 48 ± 25 mm/h and the Maximum miosis [1, 2] was 3.2 ± 0.8 mm. For the same compound, the “methadone miosis and concentration-effect relationships, change by acute or steady-state ritonavir/indinavir” value ([1]; in vivo) was “not significantly changed”.
For `Cc1c(O)cccc1C(=O)N[C@@H](CSc1ccccc1)[C@H](O)CN1C[C@H]2CCCC[C@H]2C[C@H]1C(=O)NC(C)(C)C` [nelfinavir], the “inhibition of hepatic and first-pass CYP3A” value (CYP3A) is listed as > 75%.
Compound `CCC(=O)C(C[C@H](C)N(C)C)(c1ccccc1)c1ccccc1` [S-methadone] has an AUC(0-t) (Oral; AUC0-96, 11.0 mg oral methadone HCl) of 639 ± 165 ng·h/mL, an AUC(0-inf) (Oral; AUC0-∞, 11.0 mg oral methadone HCl) of 710 ± 185 ng·h/mL and a Cmax (Oral; Cmax, 11.0 mg oral methadone HCl) of 23 ± 6 ng/mL. For the same compound, the “EH (hepatic extraction)” value (Intravenous; acute ritonavir/indinavir) was 0.10 ± 0.04, the “EH (hepatic extraction)” value (Intravenous; control) was 0.08 ± 0.02 and the “EH (hepatic extraction)” value (Intravenous; [2]) was 0.10 ± 0.04. It also gave an AUC(0-t) (Intravenous; acute ritonavir/indinavir) of 353 ± 150 ng·h/mL, an AUC(0-t) (Intravenous; control) of 401 ± 81 ng·h/mL and an AUC(0-t) (Intravenous; [2]) of 377 ± 170 ng·h/mL. For the same compound, the AUC(0-inf) (Intravenous; acute ritonavir/indinavir) was 390 ± 178 ng·h/mL, the AUC(0-inf) (Intravenous; control) was 436 ± 91 ng·h/mL and the AUC(0-inf) (Intravenous; [2]) was 406 ± 185 ng·h/mL. It also gave a Cmax (Intravenous; acute ritonavir/indinavir) of 69 ± 26 ng/mL, a Cmax (Intravenous; control) of 90 ± 53 ng/mL and a Cmax (Intravenous; [2]) of 80 ± 33 ng/mL.
